Tested on: wild-type ribosomes
Assay: Antibiotic inhibition of orthogonal sf-gfp translation by wild-type ribosomes in cell-free system
Type: biochemical, E. coli
Conditions: pactamycin 100 μM
Method: Ribosomes (wild-type) or oRibo-T (mixed with wild-type ribosomes) were prepared from SQ171fg cells transformed with pAM552 or poRibo-T1, respectively. An orthogonal sf-gfp gene was PCR amplified from the plasmid pT7oGFP using primers […] (SEQ ID NO: 227) and […] (SEQ ID NO: 228). The transcription-translation reaction was carried out in Δ(ribosome, amino acid, tRNA) PURExpress system as described above. The 7.5 μl reactions were supplemented with 18.75 ng DNA template and 7.5 pmol ribosomes and when needed, clindamycin or pactamycin were added to the reactions to the final concentrations of 50 μM or 100 μM respectively.

CC(=O)c1cccc(N[C@H]2[C@H](N)[C@@](NC(=O)N(C)C)([C@H](C)O)[C@@](C)(O)[C@@]2(O)COC(=O)c2c(C)cccc2O)c1 [Pactamycin]
inhibition of the activity of wild-type ribosomes in the PURE translation system: completely inhibited

From US10590456B2, “Ribosomes with tethered subunits” (Northwestern University, priority 2014, dated 2020)
